This is an account of results in ChEMBL document CHEMBL5661967, “Antitumor activity of HKI-272, an orally active, irreversible inhibitor of the HER-2 tyrosine kinase” (Cancer Res, 2004).

pIC50: −log10 of the molar value. Calls of active or inactive are those of the source. The calls are words filed in the database; no cut-off is given here.

Data set [1] has as its system BT-474. The data set is described as follows: Cell cycle arrest in human BT-474 cells assessed as accumulation of cells at S phase at 1 nM measured after 12 to 16 hrs by BrdUrd uptake assay (reference value: 26%). In kind it is functional. The following applies: time 12-16 hrs.
Data set [2] concerns SK-OV-3. The data set can be described thus: Antitumor activity against human SK-OV-3 cells xenografted in athymic nude mouse assessed as tumor growth inhibition at 5 mg/kg, po administered daily for 20 days via gavage and measured on day 21 relative to control. In kind it is functional. To be noted: SK-OV-3, 504 h, time 21 day, read-out: TGI.
Data set [3] concerns the target Receptor tyrosine-protein kinase erbB-2 (Homo sapiens, UniProt P04626). The data set is described as follows: Inhibition of [14C]HKI-272 binding to HER2 in human BT-474 cells at 5 uM measured after 15 mins by fluorography. In kind it is cell-based.
In data set [4] the test system is BT-474. The data set can be described thus: Cell cycle arrest in human BT-474 cells assessed as accumulation of cells at S phase at 0.2 nM measured after 12 to 16 hrs by propidium iodide staining based flow cytometry (reference value: 21%). To be noted: time 12-16 hrs. In kind it is functional.
The subject of data set [5] is BT-474. The data set can be described thus: Cell cycle arrest in human BT-474 cells assessed as accumulation of cells at S phase at 0.4 nM measured after 12 to 16 hrs by BrdUrd uptake assay (reference value: 26%). It counts as functional. To be noted: time 12-16 hrs.
The subject of data set [6] is SK-OV-3. The data set is described as follows: Antitumor activity against human SK-OV-3 cells xenografted in athymic nude mouse assessed as tumor growth inhibition at 60 mg/kg, po administered daily for 20 days via gavage and measured on day 21 relative to control. In kind it is functional. The following applies: SK-OV-3, 504 h, time 21 day, read-out: TGI.
The target of data set [7] is Hepatocyte growth factor receptor (Homo sapiens, UniProt P08581). The data set can be described thus: Inhibition of recombinant c-Met autophosphorylation (unknown origin).
The test system of data set [8] is BT-474. The data set is described as follows: Cell cycle arrest in human BT-474 cells assessed as accumulation of cells at G0-G1 phase at 0.2 nM measured after 12 to 16 hrs by propidium iodide staining based flow cytometry (reference value: 61%). It counts as functional. To be noted: time 12-16 hrs.
Data set [9] has as its target Cyclin-dependent kinase 1/cyclin B1 (Homo sapiens, UniProt P06493). The data set is described as follows: Inhibition of recombinant CDK1/cyclin B1 (unknown origin) using protein as substrate. In kind it is protein-complex assay.
Data set [10] relates to BT-474. The data set can be described thus: Cell cycle arrest in human BT-474 cells assessed as accumulation of cells at G0-G1 phase at 2 nM measured after 12 to 16 hrs by propidium iodide staining based flow cytometry (reference value: 61%). In kind it is functional. To be noted: time 12-16 hrs.
For data set [11], the system named is BT-474. The data set can be described thus: Cell cycle arrest in human BT-474 cells assessed as accumulation of cells at S phase at 1 nM measured after 12 to 16 hrs by propidium iodide staining based flow cytometry (reference value: 21%). The following applies: time 12-16 hrs. In kind it is functional.
The target of data set [12] is Mitogen-activated protein kinase kinase kinase 8 (Homo sapiens, UniProt P41279). The data set is described as follows: Inhibition of recombinant Tpl-2 (unknown origin) using peptide as substrate.
The test system of data set [13] is BT-474. The data set can be described thus: Cell cycle arrest in human BT-474 cells assessed as accumulation of cells at G2/M phase at 2 nM measured after 12 to 16 hrs by propidium iodide staining based flow cytometry (reference value: 11%). It counts as functional. The following applies: time 12-16 hrs.
Data set [14] concerns BT-474. The data set is described as follows: Cell cycle arrest in human BT-474 cells assessed as increase in accumulation of cells at sub-G1 phase at >2 nM measured after 12 to 16 hrs by propidium iodide staining based flow cytometry. In kind it is functional. The following applies: time 12-16 hrs.
In data set [15] the target is Epidermal growth factor receptor (Homo sapiens, UniProt P00533). The data set can be described thus: Inhibition of EGF-induced EGFR phosphorylation in human A-431 cells at 1 uM incubated for 3 hrs followed by compound washout and further incubated for 5 hrs by Western blot analysis relative to control. In kind it is cell-based.
Data set [16] in a line: Toxicity in human BT-474 cells xenografted athymic nude mouse assessed as body weight loss at 10 to 40 mg/kg, po administered daily via gavage for 20 days. It counts as organism-based. To be noted: in vivo, 480 h, dose 10-40 mg/kg, time 20 day.

Chain of Hepatocyte growth factor receptor (P08581 whole entry): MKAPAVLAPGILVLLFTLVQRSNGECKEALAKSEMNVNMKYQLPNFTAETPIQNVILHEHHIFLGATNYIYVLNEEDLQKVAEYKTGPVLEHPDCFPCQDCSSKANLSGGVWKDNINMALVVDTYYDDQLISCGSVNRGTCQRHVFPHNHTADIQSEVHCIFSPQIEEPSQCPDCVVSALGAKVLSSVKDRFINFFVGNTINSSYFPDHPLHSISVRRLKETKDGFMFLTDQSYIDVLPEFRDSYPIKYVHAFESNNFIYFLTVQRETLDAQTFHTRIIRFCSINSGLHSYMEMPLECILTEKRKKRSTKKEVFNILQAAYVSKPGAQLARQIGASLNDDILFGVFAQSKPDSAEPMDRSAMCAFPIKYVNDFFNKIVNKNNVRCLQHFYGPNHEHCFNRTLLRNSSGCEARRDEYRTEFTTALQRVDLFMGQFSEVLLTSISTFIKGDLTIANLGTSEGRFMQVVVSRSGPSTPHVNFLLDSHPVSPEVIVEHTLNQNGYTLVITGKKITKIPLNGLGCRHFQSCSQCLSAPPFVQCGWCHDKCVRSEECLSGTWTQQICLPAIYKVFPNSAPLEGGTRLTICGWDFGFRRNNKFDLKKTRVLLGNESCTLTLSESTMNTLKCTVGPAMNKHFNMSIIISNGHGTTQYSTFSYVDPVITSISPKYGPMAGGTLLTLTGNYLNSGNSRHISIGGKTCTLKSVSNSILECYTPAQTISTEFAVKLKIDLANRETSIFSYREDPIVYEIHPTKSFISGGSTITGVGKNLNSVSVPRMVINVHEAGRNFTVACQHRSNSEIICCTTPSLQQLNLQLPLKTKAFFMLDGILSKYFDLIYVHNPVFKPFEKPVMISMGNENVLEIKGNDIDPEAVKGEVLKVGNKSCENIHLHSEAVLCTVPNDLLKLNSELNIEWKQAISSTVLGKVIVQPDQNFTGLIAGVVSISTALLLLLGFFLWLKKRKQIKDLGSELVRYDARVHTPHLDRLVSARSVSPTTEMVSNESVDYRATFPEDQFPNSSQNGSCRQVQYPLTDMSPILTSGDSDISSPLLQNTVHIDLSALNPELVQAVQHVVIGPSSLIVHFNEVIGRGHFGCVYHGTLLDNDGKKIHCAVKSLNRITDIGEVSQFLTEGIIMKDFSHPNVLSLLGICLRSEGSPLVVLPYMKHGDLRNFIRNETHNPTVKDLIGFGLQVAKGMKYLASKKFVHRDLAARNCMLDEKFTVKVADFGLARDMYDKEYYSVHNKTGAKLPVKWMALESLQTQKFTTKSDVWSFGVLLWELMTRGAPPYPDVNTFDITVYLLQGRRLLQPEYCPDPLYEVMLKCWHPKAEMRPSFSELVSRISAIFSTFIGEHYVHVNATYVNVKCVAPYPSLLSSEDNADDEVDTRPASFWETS
Chain of Receptor tyrosine-protein kinase erbB-2 (P04626 whole entry): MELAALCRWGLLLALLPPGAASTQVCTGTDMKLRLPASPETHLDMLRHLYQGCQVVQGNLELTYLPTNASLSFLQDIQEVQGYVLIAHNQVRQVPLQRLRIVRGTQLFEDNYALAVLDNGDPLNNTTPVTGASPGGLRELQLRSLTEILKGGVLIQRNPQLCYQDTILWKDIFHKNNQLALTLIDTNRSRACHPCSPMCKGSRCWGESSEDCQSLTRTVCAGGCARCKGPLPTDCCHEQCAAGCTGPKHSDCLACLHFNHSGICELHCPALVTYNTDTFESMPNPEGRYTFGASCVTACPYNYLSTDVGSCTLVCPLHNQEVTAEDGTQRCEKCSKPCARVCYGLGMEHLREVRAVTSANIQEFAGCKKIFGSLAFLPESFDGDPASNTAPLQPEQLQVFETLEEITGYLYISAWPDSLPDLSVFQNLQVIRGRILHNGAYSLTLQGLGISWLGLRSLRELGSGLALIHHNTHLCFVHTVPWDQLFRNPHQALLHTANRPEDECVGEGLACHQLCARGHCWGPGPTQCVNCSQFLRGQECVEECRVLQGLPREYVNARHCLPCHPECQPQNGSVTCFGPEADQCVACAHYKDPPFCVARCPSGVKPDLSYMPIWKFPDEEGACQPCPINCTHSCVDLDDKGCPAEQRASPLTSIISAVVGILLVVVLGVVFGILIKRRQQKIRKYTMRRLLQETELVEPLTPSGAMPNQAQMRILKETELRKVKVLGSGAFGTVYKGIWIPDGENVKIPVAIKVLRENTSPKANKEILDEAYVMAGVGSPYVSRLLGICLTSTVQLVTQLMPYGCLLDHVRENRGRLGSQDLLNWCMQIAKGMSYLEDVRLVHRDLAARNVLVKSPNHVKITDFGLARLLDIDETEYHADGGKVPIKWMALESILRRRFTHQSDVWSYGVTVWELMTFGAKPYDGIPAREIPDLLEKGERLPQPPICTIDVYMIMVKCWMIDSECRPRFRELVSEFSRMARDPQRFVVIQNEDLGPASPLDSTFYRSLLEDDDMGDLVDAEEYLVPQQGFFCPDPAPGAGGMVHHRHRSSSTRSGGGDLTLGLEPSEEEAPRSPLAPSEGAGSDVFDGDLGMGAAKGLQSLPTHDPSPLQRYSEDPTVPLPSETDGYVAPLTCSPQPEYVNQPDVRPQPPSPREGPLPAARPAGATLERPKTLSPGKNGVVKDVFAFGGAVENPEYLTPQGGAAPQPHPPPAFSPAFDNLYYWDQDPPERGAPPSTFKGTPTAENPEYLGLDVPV
Chain of Epidermal growth factor receptor (P00533 whole entry): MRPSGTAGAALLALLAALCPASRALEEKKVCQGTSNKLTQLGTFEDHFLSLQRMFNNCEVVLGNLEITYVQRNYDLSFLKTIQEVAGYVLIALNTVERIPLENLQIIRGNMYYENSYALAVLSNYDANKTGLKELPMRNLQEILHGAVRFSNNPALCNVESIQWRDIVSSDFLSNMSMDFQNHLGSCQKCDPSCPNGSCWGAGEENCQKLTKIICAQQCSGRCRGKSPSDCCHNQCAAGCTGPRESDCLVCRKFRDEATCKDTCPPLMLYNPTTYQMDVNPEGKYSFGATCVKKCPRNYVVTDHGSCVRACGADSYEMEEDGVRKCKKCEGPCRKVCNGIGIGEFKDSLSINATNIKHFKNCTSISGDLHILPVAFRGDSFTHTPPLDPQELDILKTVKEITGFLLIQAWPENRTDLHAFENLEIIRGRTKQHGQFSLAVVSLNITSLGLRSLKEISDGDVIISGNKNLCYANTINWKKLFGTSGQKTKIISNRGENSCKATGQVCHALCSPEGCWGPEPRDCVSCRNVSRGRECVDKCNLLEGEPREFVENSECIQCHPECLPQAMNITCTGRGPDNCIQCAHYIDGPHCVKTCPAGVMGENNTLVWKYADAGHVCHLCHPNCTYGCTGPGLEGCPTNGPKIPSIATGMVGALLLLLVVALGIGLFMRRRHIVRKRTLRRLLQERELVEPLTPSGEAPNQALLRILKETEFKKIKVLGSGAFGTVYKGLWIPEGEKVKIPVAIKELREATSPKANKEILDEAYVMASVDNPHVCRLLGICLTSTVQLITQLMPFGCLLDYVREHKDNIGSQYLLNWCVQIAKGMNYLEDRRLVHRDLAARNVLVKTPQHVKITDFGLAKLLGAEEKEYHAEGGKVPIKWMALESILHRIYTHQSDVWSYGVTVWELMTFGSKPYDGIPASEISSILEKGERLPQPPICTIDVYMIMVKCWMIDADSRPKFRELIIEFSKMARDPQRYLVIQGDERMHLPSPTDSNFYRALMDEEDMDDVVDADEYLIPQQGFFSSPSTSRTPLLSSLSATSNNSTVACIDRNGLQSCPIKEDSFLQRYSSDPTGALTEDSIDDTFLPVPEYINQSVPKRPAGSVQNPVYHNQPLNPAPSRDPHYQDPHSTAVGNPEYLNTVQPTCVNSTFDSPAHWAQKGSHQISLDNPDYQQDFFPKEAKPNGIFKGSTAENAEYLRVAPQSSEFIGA
Chain of Mitogen-activated protein kinase kinase kinase 8 (P41279 whole entry): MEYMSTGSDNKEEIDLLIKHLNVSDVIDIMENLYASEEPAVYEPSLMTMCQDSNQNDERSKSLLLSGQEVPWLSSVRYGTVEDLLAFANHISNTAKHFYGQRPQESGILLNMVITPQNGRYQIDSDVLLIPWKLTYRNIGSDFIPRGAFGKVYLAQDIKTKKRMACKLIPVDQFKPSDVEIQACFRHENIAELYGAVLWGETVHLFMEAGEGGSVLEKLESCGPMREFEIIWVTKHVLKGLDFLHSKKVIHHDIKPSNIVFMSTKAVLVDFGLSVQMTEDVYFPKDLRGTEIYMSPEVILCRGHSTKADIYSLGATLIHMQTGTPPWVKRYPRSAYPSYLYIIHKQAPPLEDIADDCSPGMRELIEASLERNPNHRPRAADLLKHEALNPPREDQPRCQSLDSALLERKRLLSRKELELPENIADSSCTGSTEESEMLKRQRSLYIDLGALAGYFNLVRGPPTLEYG
Chain of Cyclin-dependent kinase 1/cyclin B1 (P06493 whole entry): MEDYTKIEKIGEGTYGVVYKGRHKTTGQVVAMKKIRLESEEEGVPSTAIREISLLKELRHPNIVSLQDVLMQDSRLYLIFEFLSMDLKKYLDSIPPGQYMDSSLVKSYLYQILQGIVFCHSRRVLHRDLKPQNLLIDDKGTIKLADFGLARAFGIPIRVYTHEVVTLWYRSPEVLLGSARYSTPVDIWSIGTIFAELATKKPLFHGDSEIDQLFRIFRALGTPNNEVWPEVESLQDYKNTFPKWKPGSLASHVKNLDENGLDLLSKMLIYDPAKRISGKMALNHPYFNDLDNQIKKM
Chain of Cyclin-dependent kinase 1/cyclin B1 (P14635 whole entry, further chain): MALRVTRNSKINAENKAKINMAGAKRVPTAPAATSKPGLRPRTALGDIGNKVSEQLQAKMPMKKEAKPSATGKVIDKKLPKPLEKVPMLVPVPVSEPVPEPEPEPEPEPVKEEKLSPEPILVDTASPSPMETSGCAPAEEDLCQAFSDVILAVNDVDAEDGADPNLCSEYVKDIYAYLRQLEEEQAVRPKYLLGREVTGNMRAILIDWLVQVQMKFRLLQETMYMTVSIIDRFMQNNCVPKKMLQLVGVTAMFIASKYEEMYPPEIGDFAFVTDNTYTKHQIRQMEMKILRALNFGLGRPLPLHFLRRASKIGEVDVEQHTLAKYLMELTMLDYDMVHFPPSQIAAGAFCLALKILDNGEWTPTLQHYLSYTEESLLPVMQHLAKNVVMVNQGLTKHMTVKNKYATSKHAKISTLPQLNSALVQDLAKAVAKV

With `COc1cc2ncc(C#N)c(Nc3ccc(OCc4ccccn4)c(Cl)c3)c2cc1NC(=O)/C=C/CN(C)C`, the Activity is given as 12% in the data set with BT-474 [1]; 16% in the data set on BT-474 [4]; 14% in the data set on BT-474 [5]; 63% with BT-474 [8]; 66% in the data set with BT-474 [10]; 10% in the data set with BT-474 [11]. The figures for the Activity (in the data set with BT-474 [13]; in data set [16]) were 11% and “Non-Toxic”, respectively. For the same molecule, in the data set with SK-OV-3 [2], the inhibition in vivo at 5 mg/kg was determined as 31%. In addition, in data set [3], the inhibition result was “Active”. The inhibition in vivo at 60 mg/kg in the data set with SK-OV-3 [6] is 85%. Also, the pIC50 was less than 4.46 in [7], less than 4.74 in data set [9] and less than 4.74 in [12]. For the same molecule, the outcome in the data set with BT-474 [14] was Active. For the same molecule, in data set [15], the inhibition is 105%.
